Reference: patent US20240358679A1, “PHARMACEUTICAL AND FOOD COMPOSITIONS FOR THE PREVENTION, ALLEVIATION, OR TREATMENT OF INFLAMMATORY DISEASES COMPRISING 1-ALKYL-5-ARYLIDENE-2-SELENOXOIMIDAZOLIDIN-4-ONE AND ITS DERIVATIVES” (priority 2022, published 2024)

How the values were obtained:
Format in all cases: cell-based
[1] = system: SH-SY5Y cell line; assay: Cell viability (MTT assay); settings: compound 0.5 μM; for cell viability after MPP+: MPP+ (2 mM) 24 hours; for cell viability after rotenone: rotenone (2 μM) 24 hours
Experimental: The treatment of cell lines with the toxic substances MPP+ or rotenone induces cytotoxicity due to various inflammatory and immune response abnormalities. The viability of the cells under these conditions can be measured using the MTT assay.
Specifically, the SH-SY5Y cell line was treated with 0.5 μM of Compound 1aaa (Compound 1), 1aca (Compound 24), 1ace (Compound 27), 1ahe (Compound 44) or 1aje (Compound 62) and then with MPP+ (2 mM) or rotenone (2 μM) for 24 hours. Cell viability in the case of being treated with each compound is illustrated in FIGS. 4 and 5.

[2] = system: Nrf-2; assay: Nrf-2 induction, Western blot of nuclear fraction; settings: SH-SY5Y, compound 10 μM, 24 hours, increase
Experimental: When oxidative stress caused by reactive oxygen species increases in cells, the synthesis of antioxidants increases in response to this. One of the transcription factors mediating this antioxidant response is Nrf-2. As the transcription factor Nrf-2 enters the nucleus and the expression of genes related to antioxidation increases, the antioxidant capacity of cells increases,
Specifically, the SH-SY5Y cell line was exposed to Compound 1aaa (Compound 1, 10 μM) for 24 hours and then the cells were taken. Thereafter, the nuclear fraction was extracted, then Western blotting was performed to analyze the amount of Nrf-2 in the nucleus, and the results are illustrated in FIG. 6.

[3] = system: BV2 cell lines; assay: Anti-inflammatory activity: morphological changes of LPS-treated BV2 cells; settings: compound 0.1, 1, 10 μg/ml for 2 hours, then LPS (10 μg/ml), 24 hours
Experimental: (§1) To evaluate the anti-inflammatory activity of the compounds of the present invention, the morphological changes related to inflammation in cells and the suppression of the expression of inflammatory proteins (IL-1R and COX2) were assessed.
(§2) Specifically, BV2 cell lines were treated with compound 1aaa (0.1, 1, 10 μg/ml) for 2 hours, followed by treatment with LPS (10 μg/ml), and then cultured for 24 hours. Additionally, Western blot analysis was performed to analyze the expression of inflammatory proteins, and the results are shown in FIGS. 8 and 9.

[4] = system: SH-SY5Y cell line; assay: Inhibition of reactive oxygen species generation (CM-H2DCFDA fluorescence); settings: compound 10 μM
Experimental: It is known that the administration of MPP+ or rotenone to cell lines results in the generation of reactive oxygen species (ROS) due to mitochondrial inhibition, the activation of NOX enzymes and the like. The excessively generated ROS can induce various inflammatory responses through multiple pathways. The ROS generated in this process react with the CM-H2DCFDA reagent to produce fluorescence, thereby allowing the indirect quantification of ROS.
Specifically, the SH-SY5Y cell line was treated with Compound 1aaa (Compound 1, 10 μM), apocynin (5 μM), or allopurinol (50 μM), and then with MPP+ (2 mM) or rotenone (2 μM) for 24 hours. The effect of each compound to inhibit the generation of reactive oxygen species is illustrated in FIGS. 2 and 3 as a relative percentage to that of the control group.

[5] = system: COX2; assay: Anti-inflammatory activity: Western blot of COX2 expression in LPS-treated BV2 cells; settings: BV2, compound 0.1, 1, 10 μg/ml, LPS (10 μg/ml), 24 hours
Experimental: as §1, §2

[6] = system: IL-1β; assay: Anti-inflammatory activity: Western blot of IL-1β expression in LPS-treated BV2 cells; settings: BV2, compound 0.1, 1, 10 μg/ml, LPS (10 μg/ml), 24 hours
Experimental: as §1, §2

| Compound | cell viability after MPP+ [1] | cell viability after rotenone [1] | amount of Nrf-2 in the nucleus [2] | activation of BV2 macrophages (morphology) [3] | generation of reactive oxygen species after MPP+ ([4]; MPP+ (2 mM) 24 hours) | generation of reactive oxygen species after rotenone ([4]; rotenone (2 μM) 24 hours) | expression of COX2 [5] | expression of IL-1β [6] |
| --- | --- | --- | --- | --- | --- | --- | --- | --- |
| CN1C(=[Se])N(c2ccccc2)C(=O)/C1=C\c1ccc(O)cc1O [Compound 1, 5-(2,4-dihydroxybenzylidene)-1-methyl-3-phenyl-2-selenoxoimidazolidin-4-one] | improve cell viability | improve cell viability | about 1.5 times | inhibited the activation of BV2 macrophages in a dose-dependent manner | effectively inhibits | effectively inhibits | significantly suppressed | significantly suppressed |
| CCc1ccc(N2C(=O)/C(=C\c3ccc(O)cc3O)N(C)C2=[Se])cc1 [Compound 24, 5-(2,4-dihydroxybenzylidene)-3-(4-ethylphenyl)-1-methyl-2-selenoxoimidazolidin-4-one] | improve cell viability | improve cell viability | – | – | – | – | – | – |
| CCc1ccc(N2C(=O)/C(=C\c3cc(O)cc(O)c3)N(C)C2=[Se])cc1 [Compound 27, 5-(3,5-dihydroxybenzylidene)-3-(4-ethylphenyl)-1-methyl-2-selenoxoimidazolidin-4-one] | improve cell viability | improve cell viability | – | – | – | – | – | – |
| CN1C(=[Se])N(CCc2ccccc2)C(=O)/C1=C\c1cc(O)cc(O)c1 [Compound 44, 5-(3,5-dihydroxybenzylidene)-1-methyl-3-phenethyl-2-selenoxoimidazolidin-4-one] | improve cell viability | improve cell viability | – | – | – | – | – | – |
| CCCCCCN1C(=O)/C(=C\c2cc(O)cc(O)c2)N(C)C1=[Se] [Compound 62, 5-(3,5-dihydroxybenzylidene)-3-hexyl-1-methyl-2-selenoxoimidazolidin-4-one] | improve cell viability | improve cell viability | – | – | – | – | – | – |
